Source: patent publication US9839642B2, “Beta-tetrazolyl-propionic acids as metallo-beta-lactamase inhibitors” (priority 2014, dated 2017)

Key:
[1] = test system: Serratia marcescens expressing IMP-1 (CL5741); assay: Antibiotic potentiation activity: synergistic concentration (MITC95) with imipenem, growth by OD600; format: cell-based; details: S. marcescens CL5741 (IMP-1), 95% inhibition of growth
Summary of the method: (§1)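 Strains grown overnight at 35° C, resuspended in saline, diluted 1:100 into 1.1×CAMHB; imipenem at 1 μg/ml or 4 μg/ml with test compound 200 μM to 0.195 μM. Incubated 22 hours to 24 hours at 35° C, OD600 read; MITC95 is lowest compound concentration inhibiting 95% of growth.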

[2] = test system: Klebsiella pneumoniae expressing VIM-1 (IHMA599644); assay: as above; format: cell-based; details: K. pneumoniae IHMA599644 (VIM-1), 95% inhibition of growth
Summary of the method: as §1

[3] = test system: Escherichia coli expressing NDM-1 (CLB30016); assay: as above; format: cell-based; details: E. coli CLB30016 (NDM-1), 95% inhibition of growth
Summary of the method: as §1

VIM-1 = VIM-1 (Pseudomonas aeruginosa, UniProt A0A0F7KYQ8); assay: Enzyme activity: determination of IC50, fluorescence assay with CCF2-FA substrate; format: biochemical; details: VIM-1 enzyme 30 pM, CCF2-FA 1.25 μM, 2 hours at 25° C.; read-out: VIM1 IC50
Summary of the method: (§2)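 Read-out: fluorescence, ex 405 nm / em 460 nm, after 2 h at 25° C with 1.25 μM CCF2-FA. Buffer 100 mM KH2PO4 pH 7, 0.005% Tween-20, 10 μM ZnSO4; enzyme 1 pM NDM-1, 2 pM IMP-1, 30 pM VIM-1. IC50 by 4-parameter fit.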

IMP-1 = IMP-1 (Serratia marcescens, UniProt P52699); assay: as above; format: biochemical; details: IMP-1 enzyme 2 pM, CCF2-FA 1.25 μM, 2 hours at 25° C.; read-out: IMP1 IC50
Summary of the method: as §2

NDM-1 = NDM-1 (Klebsiella pneumoniae, UniProt C7C422); assay: as above; format: biochemical; details: NDM-1 enzyme 1 pM, CCF2-FA 1.25 μM, 2 hours at 25° C.; read-out: NDM1 IC50
Summary of the method: as §2

Sequence of NDM-1 (C7C422 29-270, looked up, species assumed): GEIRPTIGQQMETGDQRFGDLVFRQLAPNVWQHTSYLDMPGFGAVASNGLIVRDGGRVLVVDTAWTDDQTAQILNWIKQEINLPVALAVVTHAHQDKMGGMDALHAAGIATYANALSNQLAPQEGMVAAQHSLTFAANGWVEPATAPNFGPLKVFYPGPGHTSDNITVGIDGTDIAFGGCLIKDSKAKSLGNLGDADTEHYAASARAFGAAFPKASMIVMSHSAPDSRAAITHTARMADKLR
Sequence of IMP-1 (P52699 19-246, looked up, species assumed): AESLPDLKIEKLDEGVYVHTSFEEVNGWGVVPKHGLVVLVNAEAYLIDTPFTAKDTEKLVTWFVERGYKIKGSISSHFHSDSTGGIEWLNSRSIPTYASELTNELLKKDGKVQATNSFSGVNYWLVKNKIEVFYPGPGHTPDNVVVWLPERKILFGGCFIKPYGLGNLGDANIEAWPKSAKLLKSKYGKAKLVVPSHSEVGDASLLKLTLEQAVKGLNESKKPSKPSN

CCC[C@H](C(=O)O)[C@H](Cc1ccc(C2CCN(C=N)C2)cc1)c1nnn[nH]1 (stereo partly drawn) [Example 415, (2S)-2-((1S)-2-(4-(1-(iminomethyl)pyrrolidin-3-yl)phenyl)-1-(1H-tetrazol-5-yl)ethyl)pentanoic acid]
IMP1 SM5741 MITC95 [1]: 12.5 µM
VIM1 KP599644 MITC95 [2]: 18.75 µM
NDM1 EC30016 MITC95 [3]: 9.375 µM
IC50 (VIM-1): 0.00432 µM
IC50 (IMP-1): 0.39 µM
IC50 (NDM-1): 0.121 µM

CCC[C@H](C(=O)[O-])[C@H](Cc1cc[n+](C)cc1)c1nnn[nH]1 [Example 417, (S)-2-((S)-2-(1-methylpyridin-1-ium-4-yl)-1-(1H-tetrazol-5-yl)ethyl)pentanoate]
IMP1 SM5741 MITC95 [1]: 200 µM
VIM1 KP599644 MITC95 [2]: 9.375 µM
NDM1 EC30016 MITC95 [3]: 4.688 µM
IC50 (VIM-1): 0.0451 µM
IC50 (IMP-1): 11.1 µM
IC50 (NDM-1): 1.28 µM

CCC[C@H](C(=O)[O-])[C@H](Cc1ccc(C2CC[N+](C)(C)C2)cc1)c1nnn[nH]1 (stereo partly drawn) [Example 418, (2S)-2-((1S)-2-(4-(1,1-dimethylpyrrolidin-1-ium-3-yl)phenyl)-1-(1H-tetrazol-5-yl)ethyl)pentanoate]
IMP1 SM5741 MITC95 [1]: 37.5 µM
VIM1 KP599644 MITC95 [2]: 25 µM
NDM1 EC30016 MITC95 [3]: 18.75 µM
IC50 (VIM-1): 0.0308 µM
IC50 (IMP-1): 1.99 µM
IC50 (NDM-1): 0.405 µM

CCC[C@H](C(=O)[O-])[C@H](Cc1ccc(C[N+](C)(C)C)cc1)c1nnn[nH]1 [Example 419, (S)-2-((S)-1-(1H-tetrazol-5-yl)-2-(4-((trimethylammonio)methyl)phenyl)ethyl)pentanoate]
IMP1 SM5741 MITC95 [1]: 50 µM
VIM1 KP599644 MITC95 [2]: 12.5 µM
NDM1 EC30016 MITC95 [3]: 6.25 µM
IC50 (VIM-1): 0.00551 µM
IC50 (IMP-1): 5.92 µM
IC50 (NDM-1): 0.869 µM

CC(C)(C)[C@H](C(=O)O)C(Cc1ccc(N)nc1)c1nnn[nH]1 (stereo partly drawn) [Example 420, (2R,3S)-4-(6-aminopyridin-3-yl)-2-(tert-butyl)-3-(1H-tetrazol-5-yl)butanoic acid]
IMP1 SM5741 MITC95 [1]: 1.563 µM
VIM1 KP599644 MITC95 [2]: 2.344 µM
NDM1 EC30016 MITC95 [3]: 0.3906 µM
IC50 (VIM-1): 0.0192 µM
IC50 (IMP-1): 0.0517 µM
IC50 (NDM-1): 0.0724 µM

CC(C)(C)[C@H](C(=O)O)[C@H](Cc1ccc(O)nc1)c1nnn[nH]1 [Example 421, (2R,3S)-2-(tert-butyl)-4-(6-hydroxypyridin-3-yl)-3-(1H-tetrazol-5-yl)butanoic acid]
IMP1 SM5741 MITC95 [1]: 100 µM
VIM1 KP599644 MITC95 [2]: 25 µM
NDM1 EC30016 MITC95 [3]: 25 µM
IC50 (VIM-1): 0.0249 µM
IC50 (IMP-1): 0.156 µM
IC50 (NDM-1): 0.157 µM

CC(C)(C)[C@H](C(=O)O)[C@H](Cc1ccc(NC(=N)N)nc1)c1nnn[nH]1 [Example 422, (2R,3S)-2-(tert-butyl)-4-(6-guanidinopyridin-3-yl)-3-(1H-tetrazol-5-yl)butanoic acid]
IMP1 SM5741 MITC95 [1]: 25 µM
VIM1 KP599644 MITC95 [2]: 6.25 µM
NDM1 EC30016 MITC95 [3]: 12.5 µM
IC50 (VIM-1): 0.00401 µM
IC50 (IMP-1): 0.104 µM
IC50 (NDM-1): 0.228 µM

CC(C)(C)[C@H](C(=O)O)[C@@H](Cc1cccc2sc(Br)nc12)c1nnn[nH]1 [Example 423, (2R,3R)-4-(2-bromobenzo[d]thiazol-4-yl)-2-(tert-butyl)-3-(1H-tetrazol-5-yl)butanoic acid]
IMP1 SM5741 MITC95 [1]: 25 µM
VIM1 KP599644 MITC95 [2]: 50 µM
NDM1 EC30016 MITC95 [3]: 12.5 µM
IC50 (VIM-1): 0.000989 µM
IC50 (IMP-1): 0.00277 µM
IC50 (NDM-1): 0.00122 µM

CC(C)(C)[C@H](C(=O)O)[C@H](Cc1cccc2sc(N)nc12)c1nnn[nH]1 [Example 424, (2R,3S)-4-(2-aminobenzo[d]thiazol-4-yl)-2-(tert-butyl)-3-(1H-tetrazol-5-yl)butanoic acid]
IMP1 SM5741 MITC95 [1]: 25 µM
VIM1 KP599644 MITC95 [2]: 200 µM
NDM1 EC30016 MITC95 [3]: 12.5 µM
IC50 (VIM-1): 0.0108 µM
IC50 (IMP-1): 0.00929 µM
IC50 (NDM-1): 0.00268 µM

CCC[C@H](C(=O)O)[C@H](Cc1ccc(Br)s1)c1nnn[nH]1 [Example 425, (S)-2-((S)-2-(5-bromothiophen-2-yl)-1-(1H-tetrazol-5-yl)ethyl)pentanoic acid]
IMP1 SM5741 MITC95 [1]: 25 µM
VIM1 KP599644 MITC95 [2]: 12.5 µM
NDM1 EC30016 MITC95 [3]: 12.5 µM
IC50 (VIM-1): 0.00363 µM
IC50 (IMP-1): 0.282 µM
IC50 (NDM-1): 0.105 µM

CC(C)(C)C(C(=O)O)[C@H](Cc1ccc(Br)s1)c1nnn[nH]1 (stereo partly drawn) [Example 426, (3S)-4-(5-bromothiophen-2-yl)-2-(tert-butyl)-3-(1H-tetrazol-5-yl)butanoic acid]
IMP1 SM5741 MITC95 [1]: 2.344 µM
VIM1 KP599644 MITC95 [2]: 150 µM
NDM1 EC30016 MITC95 [3]: 12.5 µM
IC50 (VIM-1): 0.0495 µM
IC50 (IMP-1): 0.0279 µM
IC50 (NDM-1): 0.142 µM

CC(C)(C)[C@H](C(=O)O)[C@H](Cc1ccc(NCCN)nc1)c1nnn[nH]1.O=C(O)C(F)(F)F [Example 427, 2-((5-((2S,3R)-3-carboxy-4,4-dimethyl-2-(1H-tetrazol-5-yl)pentyl)pyridin-2-yl)amino)ethan-1-aminium 2,2,2-trifluoroacetate]
IMP1 SM5741 MITC95 [1]: 3.125 µM
VIM1 KP599644 MITC95 [2]: 9.375 µM
NDM1 EC30016 MITC95 [3]: 1.563 µM
IC50 (VIM-1): 0.0179 µM
IC50 (IMP-1): 0.342 µM
IC50 (NDM-1): 0.119 µM

CC(C)(C)[C@H](C(=O)O)[C@H](Cc1ccc(C2=CCNC2)nc1)c1nnn[nH]1.O=C(O)C(F)(F)F [Example 429, 3-(5-((2S,3R)-3-carboxy-4,4-dimethyl-2-(1H-tetrazol-5-yl)pentyl)pyridin-2-yl)-2,5-dihydro-1H-pyrrol-1-ium 2,2,2-trifluoroacetate]
IMP1 SM5741 MITC95 [1]: 18.75 µM
VIM1 KP599644 MITC95 [2]: 25 µM
NDM1 EC30016 MITC95 [3]: 12.5 µM
IC50 (VIM-1): 0.0238 µM
IC50 (IMP-1): 0.615 µM
IC50 (NDM-1): 0.781 µM

CC(C)(C)C(C(=O)O)[C@H](Cc1ccc(C2CCNC2)nc1)c1nnn[nH]1.O=C(O)C(F)(F)F (stereo partly drawn) [Example 430, 3-(5-((2S)-3-carboxy-4,4-dimethyl-2-(1H-tetrazol-5-yl)pentyl)pyridin-2-yl)pyrrolidin-1-ium 2,2,2-trifluoroacetate]
IMP1 SM5741 MITC95 [1]: 25 µM
VIM1 KP599644 MITC95 [2]: 25 µM
NDM1 EC30016 MITC95 [3]: 12.5 µM
IC50 (VIM-1): 0.0526 µM
IC50 (IMP-1): 0.544 µM
IC50 (NDM-1): 0.62 µM

CC(C)(C)[C@H](C(=O)O)[C@H](Cc1ccc(C2CCNC2)cc1)c1nnn[nH]1.O=C(O)C(F)(F)F (stereo partly drawn) [Example 431, 3-(4-((2S,3R)-3-carboxy-4,4-dimethyl-2-(1H-tetrazol-5-yl)pentyl)phenyl)pyrrolidin-1-ium 2,2,2-trifluoroacetate]
IMP1 SM5741 MITC95 [1]: 2.344 µM
VIM1 KP599644 MITC95 [2]: 12.5 µM
NDM1 EC30016 MITC95 [3]: 6.25 µM
IC50 (VIM-1): 0.0166 µM
IC50 (IMP-1): 0.0324 µM
IC50 (NDM-1): 0.0717 µM

CCC[C@H](C(=O)O)[C@H](Cc1ccc(C2(O)CCNC2)cc1)c1nnn[nH]1.O=C(O)C(F)(F)F (stereo partly drawn) [Example 432, 3-(4-((2S,3S)-3-carboxy-2-(1H-tetrazol-5-yl)hexyl)phenyl)-3-hydroxypyrrolidin-1-ium 2,2,2-trifluoroacetate]
IMP1 SM5741 MITC95 [1]: 12.5 µM
VIM1 KP599644 MITC95 [2]: 12.5 µM
NDM1 EC30016 MITC95 [3]: 9.375 µM
IC50 (VIM-1): 0.00558 µM
IC50 (IMP-1): 1.01 µM
IC50 (NDM-1): 0.141 µM

O=C(O)[C@@H](CCCC1CCNCC1)[C@H](Cc1ccc(C2=CCNC2)cc1)c1nnn[nH]1 [Example 433, (S)-2-((S)-2-(4-(2,5-dihydro-1H-pyrrol-3-yl)phenyl)-1-(1H-tetrazol-5-yl)ethyl)-5-(piperidin-4-yl)pentanoic acid compound with 222,-trifluroacetic acid (1:2)]
IMP1 SM5741 MITC95 [1]: 100 µM
VIM1 KP599644 MITC95 [2]: 12.5 µM
NDM1 EC30016 MITC95 [3]: 12.5 µM
IC50 (VIM-1): 0.0101 µM
IC50 (IMP-1): 2 µM
IC50 (NDM-1): 0.0869 µM

O=C(O)[C@@H](CCCC1CCNCC1)[C@H](Cc1ccc(C2CCNC2)cc1)c1nnn[nH]1 (stereo partly drawn) [Example 434, (2S)-5-(piperidin-4-yl)-2-((1S)-2-(4-(pyrrolidin-3-yl)phenyl)-1-(1H-tetrazol-5-yl)ethyl)pentanoic acid 2,2,2-trifluoroacetate (1:2)]
IMP1 SM5741 MITC95 [1]: 100 µM
VIM1 KP599644 MITC95 [2]: 25 µM
NDM1 EC30016 MITC95 [3]: 12.5 µM
IC50 (VIM-1): 0.0166 µM
IC50 (IMP-1): 2 µM
IC50 (NDM-1): 0.0679 µM

Nc1ccc(C[C@H](c2nnn[nH]2)[C@H](CC(F)(F)F)C(=O)O)cn1 [Example 435, (S)-2-((S)-2-(6-aminopyridin-3-yl)-1-(1H-tetrazol-5-yl)ethyl)-4,4,4-trifluorobutanoic acid]
IMP1 SM5741 MITC95 [1]: 50 µM
VIM1 KP599644 MITC95 [2]: 2.344 µM
NDM1 EC30016 MITC95 [3]: 0.7813 µM
IC50 (VIM-1): 0.0136 µM
IC50 (IMP-1): 7.74 µM
IC50 (NDM-1): 0.432 µM

O=C(O)[C@@H](CC(F)(F)F)[C@H](Cc1ccc(NCCO)nc1)c1nnn[nH]1 [Example 436, (S)-4,4,4-trifluoro-2-((S)-2-(6-((2-hydroxyethyl)amino)pyridin-3-yl)-1-(1H-tetrazol-5-yl)ethyl)butanoic acid]
IMP1 SM5741 MITC95 [1]: 100 µM
VIM1 KP599644 MITC95 [2]: 25 µM
NDM1 EC30016 MITC95 [3]: 2.344 µM
IC50 (VIM-1): 0.054 µM
IC50 (IMP-1): 8.29 µM
IC50 (NDM-1): 1.05 µM
